Assay results published in PubChem BioAssay AID1963434 (Molecular Pharmacology Branch, DTP, NCI, 2024).

Test system: 755483-174-R-J1-PDC complex spheroid growth, percent test/control
Assay: Anticancer human tumor 755483-174-R-J1-PDC patient-derived rhabdomyosarcoma cell line growth inhibition [Asc]
Conditions: for IC50: curve of first compound; for viability, T/C: stronger effect = lower value
Summary of the method: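 Complex spheroids combining tumor cells with HUVEC endothelial cells and human MSCs, at 37 degrees C, 5% CO2; agents tested alone or combined, half-log dilutions from at or near clinical Cmax, or 10 microM if Cmax unknown.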

[1] = second compound 0.03 µM, first compound 0.0316 µM
[2] = second compound 0.03 µM, first compound 0.1 µM
[3] = second compound 0.03 µM, first compound 0.316 µM
[4] = second compound 0.03 µM, first compound 1 µM
[5] = second compound 0.0949 µM, first compound 0.0316 µM
[6] = second compound 0.0949 µM, first compound 0.1 µM
[7] = second compound 0.0949 µM, first compound 0.316 µM
[8] = second compound 0.0949 µM, first compound 1 µM
[9] = second compound 0.3 µM, first compound 0.0316 µM
[10] = second compound 0.3 µM, first compound 0.1 µM
[11] = second compound 0.3 µM, first compound 0.316 µM
[12] = second compound 0.3 µM, first compound 1 µM
[13] = second compound 0.949 µM, first compound 0.0316 µM
[14] = second compound 0.949 µM, first compound 0.1 µM
[15] = second compound 0.949 µM, first compound 0.316 µM
[16] = second compound 0.949 µM, first compound 1 µM
[17] = second compound 3 µM, first compound 0.0316 µM
[18] = second compound 3 µM, first compound 0.1 µM
[19] = second compound 3 µM, first compound 0.316 µM
[20] = second compound 3 µM, first compound 1 µM
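Note: spheroids exposed to compounds for seven days before readout.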

Row | SMILES | IC50 (second compound 0.03 µM) | IC50 (second compound 0.0949 µM) | IC50 (second compound 0.3 µM) | IC50 (second compound 0.949 µM) | IC50 (second compound 3 µM) | viability, T/C [1] | viability, T/C [2] | viability, T/C [3] | viability, T/C [4] | viability, T/C [5] | viability, T/C [6] | viability, T/C [7] | viability, T/C [8] | viability, T/C [9] | viability, T/C [10] | viability, T/C [11] | viability, T/C [12] | viability, T/C [13] | viability, T/C [14] | viability, T/C [15] | further results
1 | C=CC(=O)N1CCN(c2nc(=O)n(-c3c(C)ccnc3C(C)C)c3nc(-c4c(O)cccc4F)c(F)cc23)C(C)C1 (stereo not given) + CCN1C(C(=O)NC23CCC(C(=O)O)(CC2)CC3)C(c2cccc(Cl)c2F)C2(C(=O)Nc3cc(Cl)ccc32)C12CCCCC2 | > 10 µM | > 10 µM | > 10 µM | > 10 µM | > 10 µM | 92.4% | 83.7% | 99.7% | 88.7% | 88.6% | 103% | 82.4% | 97.8% | 80.8% | 80.6% | 85.3% | 103% | 89.1% | 82.7% | 115% | viability, T/C (second compound 0.03 µM, first compound 3.16 µM): 99.1%; viability, T/C (second compound 0.03 µM, first compound 10 µM): 65.7%; viability, T/C (second compound 0.0949 µM, first compound 3.16 µM): 98.4%; viability, T/C (second compound 0.0949 µM, first compound 10 µM): 78%; viability, T/C (second compound 0.3 µM, first compound 3.16 µM): 125%; viability, T/C (second compound 0.3 µM, first compound 10 µM): 88.8%; viability, T/C [16]: 100%; viability, T/C (second compound 0.949 µM, first compound 3.16 µM): 107%; viability, T/C (second compound 0.949 µM, first compound 10 µM): 83.2%; viability, T/C [17]: 84.4%; viability, T/C [18]: 107%; viability, T/C [19]: 94.5%; viability, T/C [20]: 81.2%; viability, T/C (second compound 3 µM, first compound 3.16 µM): 76.7%; viability, T/C (second compound 3 µM, first compound 10 µM): 63.4%
2 | COc1c(OCCCN2CCOCC2)ccc2c3n(c(=NC(=O)c4cnc(N)nc4)nc12)CCN3 + CCN1C(C(=O)NC23CCC(C(=O)O)(CC2)CC3)C(c2cccc(Cl)c2F)C2(C(=O)Nc3cc(Cl)ccc32)C12CCCCC2 | 0.0313 µM | 0.0137 µM | 0.0312 µM | 0.0262 µM | 0.0417 µM | 49.1% | 19.2% | 8.52% | 6.46% | 48.5% | 25.9% | 25.9% | 7.18% | 46.3% | 22.7% | 12.7% | 5.77% | 45.9% | 30.7% | 12.1% | viability, T/C (second compound 0.03 µM, first compound 0.00316 µM): 70.7%; viability, T/C (second compound 0.03 µM, first compound 0.01 µM): 70.5%; viability, T/C (second compound 0.0949 µM, first compound 0.00316 µM): 75.5%; viability, T/C (second compound 0.0949 µM, first compound 0.01 µM): 39.5%; viability, T/C (second compound 0.3 µM, first compound 0.00316 µM): 82.1%; viability, T/C (second compound 0.3 µM, first compound 0.01 µM): 89.5%; viability, T/C (second compound 0.949 µM, first compound 0.00316 µM): 75.7%; viability, T/C (second compound 0.949 µM, first compound 0.01 µM): 64.9%; viability, T/C [16]: 9.33%; viability, T/C (second compound 3 µM, first compound 0.00316 µM): 53.2%; viability, T/C (second compound 3 µM, first compound 0.01 µM): 64.1%; viability, T/C [17]: 59.9%; viability, T/C [18]: 21.3%; viability, T/C [19]: 13.8%; viability, T/C [20]: 7.35%
